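Tested at 5 concentrations; 48 h exposure; 96-well plates; endpoints linearly interpolated, else capped at highest concentration. GI50: concentration for 50% inhibition of growth.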 Active and inactive are the calls of the source. Rule as the data show it: active = GI50 up to about 1.1 µM and inactive = higher.
How the values were obtained:
Experiment in all cases: NCI-60 cell line screen, 48 h
[1] = test system: CCRF-CEM
[2] = test system: HCT-15
[3] = test system: IGROV-1
[4] = test system: M14
[5] = test system: MDA-MB-231
[6] = test system: MDA-MB-435
[7] = test system: Malme-3M
[8] = test system: NCI-H226
[9] = test system: NCI-H460
[10] = test system: NCI-H522
[11] = test system: OVCAR-8
[12] = test system: RXF 393
[13] = test system: SF-539
[14] = test system: SK-MEL-2
[15] = test system: SK-OV-3
[16] = test system: SW-620
[17] = test system: T47D
[18] = test system: UACC-257
[19] = test system: UO-31
[20] = test system: HOP-62

| SMILES | GI50 [1] | GI50 [2] [µM] | GI50 [3] | GI50 [4] | GI50 [5] | GI50 [6] | GI50 [7] | GI50 [8] | GI50 [9] | GI50 [10] | GI50 [11] | GI50 [12] | GI50 [13] | GI50 [14] | GI50 [15] | GI50 [16] | GI50 [17] | GI50 [18] | GI50 [19] | GI50 [20] |
| --- | --- | --- | --- | --- | --- | --- | --- | --- | --- | --- | --- | --- | --- | --- | --- | --- | --- | --- | --- | --- |
| CCN1CCC(O)(/C=C/c2cccc(C)c2)C(C(=O)/C=C/c2cccc(C)c2)C1 (stereo not drawn) | 1.57 µM (inactive) | 2.25 | 1.94 µM (inactive) | 2.58 µM (inactive) | 3.35 µM (inactive) | 2.02 µM (inactive) | 1.57 µM (inactive) | 2.42 µM (inactive) | 2.12 µM (inactive) | 2.21 µM (inactive) | 2.87 µM (inactive) | 1.67 µM (inactive) | 2.17 µM (inactive) | 2.31 µM (inactive) | 3.35 µM (inactive) | 2.29 µM (inactive) | 2.7 µM (inactive) | 2.53 µM (inactive) | 1.69 µM (inactive) | – |
| C=C1C(=O)OC2/C=C(/C)C(OC(C)=O)CC(O)/C(C)=C\C(OC(=O)/C(C)=C\C)C12 (stereo not drawn) | 28.6 µM (inactive) | 36.6 | > 100 µM (inactive) | 53.6 µM (inactive) | > 100 µM (inactive) | 81.8 µM (inactive) | 14.3 µM (inactive) | > 100 µM (inactive) | > 100 µM (inactive) | 10.6 µM (inactive) | 35.3 µM (inactive) | 51.9 µM (inactive) | > 100 µM (inactive) | > 100 µM (inactive) | > 100 µM (inactive) | 25.8 µM (inactive) | 52.6 µM (inactive) | > 100 µM (inactive) | – | > 100 µM (inactive) |
| CCOC(=O)Cc1nc2sc(S(N)(=O)=O)nn2c1Br | < 0.01 µM (active) | 23.7 | 28.4 µM (inactive) | 15.7 µM (inactive) | 17.6 µM (inactive) | 38.7 µM (inactive) | 29.2 µM (inactive) | 27.2 µM (inactive) | 32 µM (inactive) | 19.1 µM (inactive) | 21.3 µM (inactive) | 21.7 µM (inactive) | – | 28.5 µM (inactive) | > 100 µM (inactive) | 23.6 µM (inactive) | 27.3 µM (inactive) | 29.9 µM (inactive) | 15.8 µM (inactive) | > 100 µM (inactive) |
| COC1=C(C)C(=O)C2=C(C1=O)C1C3CC4=C(C(=O)C(OC)=C(C)C4=O)C(CNC(=O)C(C)O)N3C(C#N)C(C2)N1C (stereo not drawn) | < 0.01 µM (active) | 0.0169 | < 0.01 µM (active) | < 0.0112 µM (active) | < 0.01 µM (active) | < 0.01 µM (active) | < 0.01 µM (active) | 0.0212 µM (active) | 0.0159 µM (active) | < 0.01 µM (active) | < 0.01 µM (active) | < 0.0121 µM (active) | < 0.01 µM (active) | < 0.01 µM (active) | 0.0673 µM (active) | < 0.01 µM (active) | < 0.01 µM (active) | < 0.01 µM (active) | 0.101 µM (active) | 0.0149 µM (active) |
| CC(C)c1ccc2c(c1)/C(=C1/Nc3ccccc3C1=O)C(=O)N2 | 27.3 µM (inactive) | 36.5 | 1.45 µM (inactive) | 33.6 µM (inactive) | 5.85 µM (inactive) | 25.8 µM (inactive) | 46.8 µM (inactive) | 3.62 µM (inactive) | 9.27 µM (inactive) | 25.5 µM (inactive) | 10.6 µM (inactive) | 1.42 µM (inactive) | – | 14.3 µM (inactive) | 3.75 µM (inactive) | 43.3 µM (inactive) | 0.557 µM (active) | 61.8 µM (inactive) | 6.5 µM (inactive) | 4.57 µM (inactive) |
| CN(C)C(=O)C1CCN(Cc2c[nH]c3ccccc23)CC1 | – | > 100 | > 100 µM (inactive) | > 100 µM (inactive) | > 100 µM (inactive) | > 100 µM (inactive) | > 100 µM (inactive) | > 100 µM (inactive) | – | > 100 µM (inactive) | > 100 µM (inactive) | > 100 µM (inactive) | – | > 100 µM (inactive) | > 100 µM (inactive) | 17 µM (inactive) | > 100 µM (inactive) | > 100 µM (inactive) | > 100 µM (inactive) | > 100 µM (inactive) |
| CNC(=S)N/N=C/c1cccc(C)n1 | 23.4 µM (inactive) | 26 | 44.7 µM (inactive) | 21.3 µM (inactive) | 39.3 µM (inactive) | 45 µM (inactive) | 37.2 µM (inactive) | > 50.7 µM (inactive) | 19.9 µM (inactive) | 27.2 µM (inactive) | 23.6 µM (inactive) | 38.5 µM (inactive) | 18.4 µM (inactive) | 49.1 µM (inactive) | 37.2 µM (inactive) | 49.1 µM (inactive) | 42.8 µM (inactive) | 32.7 µM (inactive) | 20.7 µM (inactive) | 20.7 µM (inactive) |

Reference: ChEMBL document CHEMBL1201862, “PubChem BioAssay data set” (2004)
